Assay results from US20220040129A1, “TREATMENT OF HYPERAMMONEMIA IN PATIENTS WITH RENAL INSUFFICIENCY” (RECORDATI S.p.A., priority 2019, published 2022).

Key:
Assay in all cases: In vitro transporter inhibition
Assay type in all cases: in vitro ADME
[1] = target: T1, human OAT3 (Homo sapiens, UniProt Q8TCC7)
T1 sequence (Q8TCC7 1-542): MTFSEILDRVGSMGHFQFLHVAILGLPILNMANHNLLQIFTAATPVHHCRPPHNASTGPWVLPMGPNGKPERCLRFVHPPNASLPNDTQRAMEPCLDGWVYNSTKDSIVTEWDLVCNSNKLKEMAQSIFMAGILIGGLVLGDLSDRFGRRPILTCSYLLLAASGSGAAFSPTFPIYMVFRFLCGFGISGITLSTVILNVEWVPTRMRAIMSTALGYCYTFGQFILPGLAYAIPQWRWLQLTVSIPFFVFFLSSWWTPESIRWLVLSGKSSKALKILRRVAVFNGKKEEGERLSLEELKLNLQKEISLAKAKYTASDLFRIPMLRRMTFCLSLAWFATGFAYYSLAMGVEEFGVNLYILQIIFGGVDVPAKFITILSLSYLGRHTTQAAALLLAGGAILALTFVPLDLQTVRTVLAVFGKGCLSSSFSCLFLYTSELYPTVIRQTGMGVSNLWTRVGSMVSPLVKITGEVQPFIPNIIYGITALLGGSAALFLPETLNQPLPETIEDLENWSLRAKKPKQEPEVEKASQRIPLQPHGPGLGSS
Method: (§1) In vitro drug interaction studies were performed with human transporters. […] Potential interactions with inhibitors of the OAT1 transporter were considered clinically irrelevant.

[2] = target: T2, human OATP1B3 (Homo sapiens, UniProt Q9NPD5)
T2 sequence (Q9NPD5 1-702): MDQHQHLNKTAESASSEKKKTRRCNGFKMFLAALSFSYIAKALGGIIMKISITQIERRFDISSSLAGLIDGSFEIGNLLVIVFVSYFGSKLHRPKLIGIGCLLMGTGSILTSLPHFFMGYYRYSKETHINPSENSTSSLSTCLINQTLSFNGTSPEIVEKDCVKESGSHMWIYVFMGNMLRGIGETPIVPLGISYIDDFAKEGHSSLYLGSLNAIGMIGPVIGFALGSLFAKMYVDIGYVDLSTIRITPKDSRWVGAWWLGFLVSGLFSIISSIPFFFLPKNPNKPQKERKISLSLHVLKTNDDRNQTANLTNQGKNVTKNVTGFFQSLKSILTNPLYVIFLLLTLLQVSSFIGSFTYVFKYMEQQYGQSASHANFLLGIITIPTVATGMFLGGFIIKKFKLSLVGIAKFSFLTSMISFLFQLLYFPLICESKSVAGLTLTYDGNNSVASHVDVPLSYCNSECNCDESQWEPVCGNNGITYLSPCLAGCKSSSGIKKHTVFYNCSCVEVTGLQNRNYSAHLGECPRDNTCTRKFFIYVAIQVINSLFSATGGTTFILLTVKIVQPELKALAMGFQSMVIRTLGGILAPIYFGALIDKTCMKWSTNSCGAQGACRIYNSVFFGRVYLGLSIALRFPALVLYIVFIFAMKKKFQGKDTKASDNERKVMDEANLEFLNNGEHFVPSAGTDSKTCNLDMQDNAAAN
Method: as §1

[3] = target: T3, human OCT1 (Homo sapiens, UniProt O15245)
T3 sequence (O15245 1-554): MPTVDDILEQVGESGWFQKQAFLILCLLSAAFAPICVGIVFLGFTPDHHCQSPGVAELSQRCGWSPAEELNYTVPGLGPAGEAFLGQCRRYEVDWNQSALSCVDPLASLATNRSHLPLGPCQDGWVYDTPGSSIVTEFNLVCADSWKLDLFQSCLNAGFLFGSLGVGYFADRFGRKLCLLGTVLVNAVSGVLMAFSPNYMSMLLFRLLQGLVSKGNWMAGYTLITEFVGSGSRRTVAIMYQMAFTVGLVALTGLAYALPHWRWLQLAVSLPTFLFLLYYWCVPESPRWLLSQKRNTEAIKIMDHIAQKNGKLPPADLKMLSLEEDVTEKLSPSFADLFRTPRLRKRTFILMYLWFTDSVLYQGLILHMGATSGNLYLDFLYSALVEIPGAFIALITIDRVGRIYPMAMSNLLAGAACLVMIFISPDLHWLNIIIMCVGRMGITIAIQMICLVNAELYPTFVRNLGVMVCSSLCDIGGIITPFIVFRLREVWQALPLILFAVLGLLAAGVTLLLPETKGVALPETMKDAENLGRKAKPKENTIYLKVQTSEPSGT
Method: as §1

[4] = target: T4, human OAT1 (Homo sapiens, UniProt Q4U2R8)
T4 sequence (Q4U2R8 1-563): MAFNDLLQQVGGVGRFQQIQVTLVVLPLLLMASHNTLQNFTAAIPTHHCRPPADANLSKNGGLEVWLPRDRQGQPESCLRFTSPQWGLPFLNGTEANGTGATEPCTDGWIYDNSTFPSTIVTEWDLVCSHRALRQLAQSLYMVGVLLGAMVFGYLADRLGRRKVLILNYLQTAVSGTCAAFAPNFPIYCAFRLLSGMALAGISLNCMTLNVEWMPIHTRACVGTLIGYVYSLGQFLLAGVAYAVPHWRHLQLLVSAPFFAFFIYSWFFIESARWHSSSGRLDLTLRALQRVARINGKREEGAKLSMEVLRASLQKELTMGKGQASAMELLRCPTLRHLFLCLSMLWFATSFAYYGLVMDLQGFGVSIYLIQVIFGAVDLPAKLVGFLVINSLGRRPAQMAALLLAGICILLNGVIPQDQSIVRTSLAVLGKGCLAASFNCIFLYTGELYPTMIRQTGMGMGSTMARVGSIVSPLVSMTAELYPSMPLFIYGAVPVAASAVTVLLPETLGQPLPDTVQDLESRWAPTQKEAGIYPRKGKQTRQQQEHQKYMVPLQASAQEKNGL
Method: as §1

[5] = target: human MATE2-K (Homo sapiens, UniProt Q86VL8)
human MATE2-K, sequence (Q86VL8 1-566 isoform Q86VL8-3): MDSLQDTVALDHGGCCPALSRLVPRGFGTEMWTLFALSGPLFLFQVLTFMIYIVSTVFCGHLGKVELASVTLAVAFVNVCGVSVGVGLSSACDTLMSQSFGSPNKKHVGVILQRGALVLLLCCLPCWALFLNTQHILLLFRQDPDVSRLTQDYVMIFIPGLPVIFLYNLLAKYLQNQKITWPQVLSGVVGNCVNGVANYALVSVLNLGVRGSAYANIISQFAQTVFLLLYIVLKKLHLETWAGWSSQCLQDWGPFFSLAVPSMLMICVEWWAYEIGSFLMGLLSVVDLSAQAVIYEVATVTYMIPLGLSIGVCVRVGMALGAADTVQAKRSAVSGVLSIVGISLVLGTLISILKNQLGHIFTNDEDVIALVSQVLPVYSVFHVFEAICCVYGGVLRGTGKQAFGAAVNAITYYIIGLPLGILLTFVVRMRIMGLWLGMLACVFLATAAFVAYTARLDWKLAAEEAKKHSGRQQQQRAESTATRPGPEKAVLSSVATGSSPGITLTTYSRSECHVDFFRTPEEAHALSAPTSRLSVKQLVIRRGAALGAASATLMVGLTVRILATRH
Method: as §1

NC(=O)N[C@@H](CCC(=O)O)C(=O)O [carglumic acid, N-carbamoyl-L-glutamic acid]
not an inhibitor: Inhibition of human OAT3 uptake transporter [1] | Inhibition of human OATP1B3 uptake transporter [2] | Inhibition of human OCT1 uptake transporter [3] | Inhibition of human OAT1 uptake transporter [4] | Inhibition of human MATE2-K uptake transporter [5]
